The text below walks through data of patent US9820992B2, “Method of treating non-small-cell lung cancer using pharmaceutical formulation containing thienotriazolodiazepine compounds” (ONCOETHIX GmbH, priority 2013, dated 2017).

Each structure is given as a SMILES string. Entries after “also recorded” stand apart in the source; their conditions may differ.

Assay [1] has as its system A549 cells. The experiment in a line: MTT cell viability/proliferation assay, 72 h. Type of assay: cell-based. How it is done:
(§1) Five established NSCLC cell lines (i.e. H2228, H3122, A549, HOP62 and HOP92) were exposed to increasing doses of compound (1-1) (OncoEthix SA, Switzerland). Effect on cell viability was determined by the MTT assay after 72 h exposure. The growth inhibition (GI) 50% values were determined by GraphPad Prism 5.0 software. And protein levels were analyzed by Western Blot using commercial antibodies. RNA was extracted with the Qiagen RNAEasy kit and reverse-transcribed using the Superscript First-Strand Synthesis System for RT-PCR kit following manufacturer's instructions. RT-PCR was performed using Fast SYBR Green Master Mix on a StepOnePlus Real-Time PCR System.
(§2) Five established NSCLC cell lines, HOP62, HOP92, A549, H2228, and H3122 harboring different oncogenic mutations for KRAS, LKB1, TP53 and ALK (FIG. 19) were exposed to increasing doses of compound (1-1) (OncoEthix SA, Switzerland) for 72 h and cell proliferation was evaluated by MTT assays. Results represent the mean±95% CI of at least 3 independent experiments performed in triplicate. Protein levels were analyzed by Western blot using commercial antibodies. For cell cycle analysis cells were stained with PI and analyzed using a FACScan flow cytometer after 24 h of treatment. RT-PCR was performed using Fast SYBR Green Master Mix on a StepOnePlus Real-Time PCR System. Results represent the mean±SD of at least 2 independent experiments, where *p<0.05 versus control cells (0.1% DMSO), employing Anova followed by Dunnett's Multiple Comparison Test. Concomitant compound (1-1) combination studies were performed in cell lines exposed for 48 h to increasing doses of compound (1-1) alone or in combination with everolimus or crizotinib, and assessed using the Chou & Talalay method. Combination Index (CI) was determined by median effect plot analysis using CalcuSyn software. CI<1 synergy, CI=1 additivity and CI>1 antagonist effects. Results represent the median and range of 3 independent experiments performed in triplicate.

Assay [2] has as its system H2228 cells. The assay can be described thus: MTT cell viability/proliferation assay, 72 h. As to conditions: Homo sapiens, NCI-H2228, H2228 cells (EML4-ALK-positive), 72-h exposure. It counts as cell-based. The method, then:
as §1, §2

For assay [3], the system named is H3122 cells. The assay can be described thus: MTT cell viability/proliferation assay, 72 h. Type of assay: cell-based. As to conditions: Homo sapiens, NCI-H3122, H3122 cells (EML4-ALK-positive), 72-h exposure. The method, then: as §1, §2
The test system of assay [4] is NSCLC cell lines HOP62, HOP92, A549, H2228, H3122. The assay can be described thus: MTT proliferation assay in NSCLC cell line panel. Type of assay: cell-based. As to conditions: five NSCLC cell lines. The method, then:
as §2

The subject of assay [5] is NSCLC cells. The assay can be described thus: Cell cycle analysis (PI staining, flow cytometer). It counts as cell-based. As to conditions: 24 h exposure; dihydrate. How it is done: as §2
A general note: In flow cytometry, cells or beads pass a laser one at a time.

The test system of assay [6] is STAT3. The assay can be described thus: Cell signaling pathways assessment (Western blot). It counts as cell-based. As to conditions: down-regulation after 24 h and up to 72 h exposure. The method, then: as §1
Assay [7] relates to C-MYC. The experiment in a line: C-MYC protein and mRNA levels in NSCLC cell lines (Western blot, RT-PCR). Type of assay: cell-based. As to conditions: NSCLC cell lines (Example 7). How it is done:
as §1
(In general: Immunoblotting shows a protein as a band on a membrane.)

The test system of assay [8] is N-MYC mRNA in H3122 cells. The assay can be described thus: N-MYC mRNA levels in H3122 cells (RT-PCR). It counts as cell-based. The method, then:
as §1
Five established NSCLC cell lines, HOP62, HOP92, A549, H2228, and H3122 harboring different oncogenic mutations for KRAS, LKB1, TP53 and ALK (FIG. 19) were exposed to increasing doses of compound (1-1) (OncoEthix SA, Switzerland) for 72 h and cell proliferation was evaluated by MTT assays. […] Protein levels were analyzed by Western blot using commercial antibodies. For cell cycle analysis cells were stained with PI and analyzed using a FACScan flow cytometer after 24 h of treatment. […] Concomitant compound (1-1) combination studies were performed in cell lines exposed for 48 h to increasing doses of compound (1-1) alone or in combination with everolimus or crizotinib, and assessed using the Chou & Talalay method. […]

The subject of assay [9] is C-MYC in HOP92 cells. The assay can be described thus: C-MYC mRNA and protein levels in HOP92 cells. Type of assay: cell-based. As to conditions: 500 nM, after 4 hours, maintained after 24 hours. How it is done: as §2
Assay [10] concerns N-MYC mRNA in HOP62 cells. The experiment in a line: N-MYC mRNA levels in HOP62 cells (RT-PCR). Type of assay: cell-based. As to conditions: 500 nM, after 4 hours, maintained after 24 hours. How it is done:
as §2

For assay [11], the system named is H2228 cells. The assay can be described thus: Concomitant combination with crizotinib (Chou & Talalay). As to conditions: combined with crizotinib, 48 h concomitant exposure, CI<1 synergy, CI=1 additivity, CI>1 antagonist, called additive. It counts as cell-based. How it is done:
as §2

The test system of assay [12] is A549 cells. The assay can be described thus: Concomitant combination with everolimus (Chou & Talalay). It counts as cell-based. As to conditions: 48 h concomitant. How it is done: as §2
In assay [13] the test system is H2228 cells. Described as above. Type of assay: cell-based. As to conditions: 48 h concomitant. The method, then:
as §2

Assay [14] deals with HOP62 cells. The assay is described as above. Type of assay: cell-based. As to conditions: 48 h concomitant. The method, then: as §2
In assay [15] the test system is HOP92 cells. The description is as above. Type of assay: cell-based. As to conditions: 48 h concomitant. How it is done: as §2
In assay [16] the test system is H3122 tumor. The experiment in a line: H3122 tumor growth in nude mice. Type of assay: in vivo, male athymic NMRI nude mice. As to conditions: gavage, continuous. The method, then: 5.10^6 H3122 cells were injected in the flank of male athymic NMRI nude mice, and mice were randomized to 3 groups (8 mice/group) when tumor volume reach 100 mm^3; vehicle (PBS, once daily, oral continuous), Compound (1-1) (50 mg/kg/bidaily, gavage, continuous), or crizotinib (25 mg/kg/daily, gavage, continuous).

A word on the GI50: it is the concentration at which growth is held to half of that of the control.

Take `Cc1sc2c(c1C)C(c1ccc(Cl)cc1)=N[C@@H](CC(=O)Nc1ccc(O)cc1)c1nnc(C)n1-2` [Compound (1-1), 2-[(6S)-4-(4-chlorophenyl)-2,3,9-trimethyl-6H-thienol[3,2-f]-[1,2,4]triazolo[4,3-a][1,4]diazepin-6-yl]-N-(4-hydroxyphenyl)acetamide dihydrate]: in assay [1] (A549 cells with concurrent KRAS and LKB1 mutations), the “effects in A549 cells” value is reported as “abrogate compound (1-1) effects”. In addition, the GI50 in [1] (Homo sapiens, A549, EML4-ALK-negative (A49) cell line, 72 h exposure, MTT) was 432 nM; in assay [2], 629 nM; in assay [3], 627 nM; in assay [4] (72 h-exposure, read-out: GI50 values across the cell line panel), 100 to 700 nM. In addition, in assay [4] (72 h), the “cytostatic effects in NSCLC cell lines” value is given as “cytostatic effects in 4 out of 5 NSCLC cell lines”. Besides, in [5], the “percentage of cells in S phase” value is “reduction in the percentage of cells in S phase; also recorded: reduction of the S phase cell fraction”. In addition, in [6], the STAT3 regulation entry is recorded as “transient upregulation of STATS with a subsequent down-regulation”. For the same compound, the “C-MYC protein and mRNA levels” value in assay [7] was “not altered”. The “N-MYC mRNA levels” value in assay [8] (EML4-ALK-positive H3122 cells (Example 7)) is listed as “down-regulation”; in assay [8] (H3122 cells, 500 nM, after 4 hours, maintained after 24 hours), “rapid downregulation”; in assay [10], “rapid downregulation”. Moreover, the “C-MYC mRNA and protein levels” value in assay [9] is on record as “rapid downregulation”. Moreover, the “Combination Index (CI)” value in assay [11] turned out to be 0.9. In addition, the “combination effect with everolimus” value in [12], in [13], in [14] and in [15] was “additive/synergistic effects” each time. For the same compound, the “tumor growth in H3122 tumor bearing-mice” value in [16] (50 mg/kg/bidaily, vs vehicle, dihydrate) was “inhibited tumor growth to a similar extent as crizotinib; also recorded: slowed tumor progression”.
In the case of `C[C@@H](Oc1cc(-c2cnn(C3CCNCC3)c2)cnc1N)c1c(Cl)ccc(F)c1Cl` [crizotinib, reference compound], in assay [16] (25 mg/kg/daily), the “tumor growth in H3122 tumor bearing-mice” value was “inhibited tumor growth to a similar extent”.
